# Measured values: ChEMBL document CHEMBL1697781, “Assessment of the health effects of chemicals in humans: II. Construction of an adverse effects database for QSAR modeling” (Curr Drug Discov Technol, 2004)
# Tests used:
# Conditions in all cases: human; call rule not given here
# Hepatotoxicity [1] = experiment: FDA HLAED, liver enzyme composite activity
# Hepatotoxicity [2] = experiment: FDA HLAED, lactate dehydrogenase (LDH) increase
# Hepatotoxicity [3] = experiment: FDA HLAED, gamma-glutamyl transferase (GGT) increase
# Hepatotoxicity [4] = experiment: FDA HLAED, alkaline phosphatase increase
# Hepatotoxicity [5] = experiment: FDA HLAED, serum glutamic pyruvic transaminase (SGPT) increase
# Hepatotoxicity [6] = experiment: FDA HLAED, serum glutamic oxaloacetic transaminase (SGOT) increase
# For GGT Increase - Index Value in this document: reference of the scale not given here.
# For LDH Increase - Index Value in this document: reference of the scale not given here.
Structure (SMILES),Composite Activity - Active (Hepatotoxicity [1]),Composite Activity - Marginal (Hepatotoxicity [1]),Composite Activity - Score (Hepatotoxicity [1]),LDH Increase - Activity Score (Hepatotoxicity [2]),LDH Increase - Index Value (Hepatotoxicity [2]),LDH Increase - Number of Reports (Hepatotoxicity [2]),GGT Increase - Activity Score (Hepatotoxicity [3]),GGT Increase - Index Value (Hepatotoxicity [3]),GGT Increase - Number of Reports (Hepatotoxicity [3]),Alkaline Phosphatase Increase - Activity Score (Hepatotoxicity [4]),Alkaline Phosphatase Increase - Index Value (Hepatotoxicity [4]),Alkaline Phosphatase Increase - Number of Reports (Hepatotoxicity [4]),SGPT Increase - Activity Score (Hepatotoxicity [5]),SGPT Increase - Index Value (Hepatotoxicity [5]),SGPT Increase - Number of Reports (Hepatotoxicity [5]),SGOT Increase - Activity Score (Hepatotoxicity [6]),SGOT Increase - Index Value (Hepatotoxicity [6]),SGOT Increase - Number of Reports (Hepatotoxicity [6]),also measured
O=c1[nH]c2ccccc2n1C1CCN(CCCC(c2ccc(F)cc2)c2ccc(F)cc2)CC1 [PIMOZIDE],0,0,Inactive,Inactive,0,< 4,Inactive,17.6,< 4,Inactive,17.6,< 4,Inactive,17.6,< 4,Inactive,0,< 4,–
CC(C)NCC(O)COc1cccc2[nH]ccc12 (stereo unspecified) [PINDOLOL],0,0,Inactive,Inactive,0.7,< 4,Inactive,0,< 4,Inactive,1,< 4,Inactive,2.6,>= 4,Inactive,2.6,>= 4,–
CC(=O)O[C@H]1C[C@@H]2CC[C@@H]3[C@H](CC[C@@]4(C)[C@H]3C[C@H](N3CC[N+](C)(C)CC3)[C@@H]4OC(C)=O)[C@@]2(C)C[C@@H]1N1CC[N+](C)(C)CC1.[Br-].[Br-] [PIPECURONIUM BROMIDE],0,0,Inactive,Inactive,0,< 4,Inactive,0,< 4,Inactive,0,< 4,Inactive,0,< 4,Inactive,0,< 4,–
CCN1CCN(C(=O)N[C@@H](C(=O)N[C@@H]2C(=O)N3[C@@H]2SC(C)(C)[C@@H]3C(=O)O)c2ccccc2)C(=O)C1=O [PIPERACILLIN],0,0,Inactive,Inactive,0,< 4,Inactive,0,< 4,Inactive,0.3,< 4,Inactive,0,< 4,Inactive,0.3,< 4,–
CC(C)(C)NCC(O)c1ccc(O)c(CO)n1 (stereo unspecified) [PIRBUTEROL],0,0,Inactive,Inactive,0,< 4,Inactive,0,< 4,Inactive,0,< 4,Inactive,0,< 4,Inactive,0.3,< 4,–
CN1C(C(=O)Nc2ccccn2)=C(O)c2ccccc2S1(=O)=O [PIROXICAM],0,0,Inactive,Inactive,0.5,< 4,Inactive,0,< 4,Inactive,2.6,>= 4,Inactive,0.9,>= 4,Inactive,1.7,>= 4,–
COc1cc([C@@H]2c3cc4c(cc3[C@H](O)[C@H]3COC(=O)[C@H]23)OCO4)cc(OC)c1OC [PODOFILOX],0,0,Inactive,Inactive,0,< 4,Inactive,0,< 4,Inactive,0,< 4,Inactive,0,< 4,Inactive,0,< 4,–
CC[C@H](C)C(=O)O[C@H]1C[C@H](O)C=C2C=C[C@H](C)[C@H](CC[C@@H](O)C[C@@H](O)CC(=O)O)[C@H]21 [PRAVASTATIN],4,1,Active,Marginally Active,3.1,>= 4,Active,5.3,>= 4,Active,4.5,>= 4,Active,6.3,>= 4,Active,6.2,>= 4,–
O=C1CN=C(c2ccccc2)c2cc(Cl)ccc2N1CC1CC1 [PRAZEPAM],0,0,Inactive,Inactive,0,< 4,Inactive,0,< 4,Inactive,0.3,< 4,Inactive,0.3,< 4,Inactive,0.3,< 4,–
CCN(CC)CCNC(=O)c1ccc(N)cc1 [PROCAINAMIDE],0,0,Inactive,Inactive,0,< 4,Inactive,0,< 4,Inactive,0,< 4,Inactive,0,< 4,Inactive,0,< 4,–
CCCNCC(O)COc1ccccc1C(=O)CCc1ccccc1 (stereo unspecified) [PROPAFENONE],–,–,–,Inactive,1.9,< 4,Inactive,2.9,< 4,Active,7.6,>= 4,Active,4.7,>= 4,Active,5.7,>= 4,Composite Activity - Active (Hepatotoxicity [1]; Liver): 3; Composite Activity - Marginal (Hepatotoxicity [1]; Liver): 0; Composite Activity - Score (Hepatotoxicity [1]; Liver): Active
CC(C)c1cccc(C(C)C)c1O [PROPOFOL],–,–,–,Inactive,0.5,>= 4,Inactive,0.1,< 4,Inactive,0.4,>= 4,Inactive,0.5,>= 4,Inactive,0.7,>= 4,Composite Activity - Active (Hepatotoxicity [1]; Liver): 0; Composite Activity - Marginal (Hepatotoxicity [1]; Liver): 0; Composite Activity - Score (Hepatotoxicity [1]; Liver): Inactive
